Assay results taken from patent US20110124715A1, “Antiviral Oligonucleotides Having a Conserved G4 Core Sequence” (priority 1992, published 2011).
pEC50, pIC50, pKd: −log10 of the molar value. Where “and” joins values, the source holds several entries; their conditions need not be identical. Identical values can stand only once. Like-named read-outs stand apart in the source and are kept apart here. Marks after values point to notes of the source that are not given here. Strand notation (5' to 3'): a small letter for the sugar, then the base; units joined by * are phosphorothioate-linked, units joined directly phosphodiester-linked; [ ] holds rarer units or linkages, { } end groups; capitals alone tell only the bases. [I] = hypoxanthine (inosine); d = 2'-deoxy (DNA)

What was measured:
[1] = test system: HIV-1IIIB; test: Acute HIV infection assay (XTT, CEM cells); settings: Table 3; for pIC50: inhibition of HIV
[2] = test system: human T-lymphoblastoid CEM cell line
[3] = test system: HIV-1IIIB
[4] = Fraction tetramer by size exclusion chromatography; assay type: physicochemical; settings: Table 16; asterisk = more than one aggregate species
[5] = test system: HIV-1
[6] = biological target: T1, human type II phospholipase A2 (Homo sapiens, UniProt P14555); test: Phospholipase A2 assay, 3H-oleic acid labelled E. coli substrate; assay type: biochemical
T1 sequence (P14555 21-144): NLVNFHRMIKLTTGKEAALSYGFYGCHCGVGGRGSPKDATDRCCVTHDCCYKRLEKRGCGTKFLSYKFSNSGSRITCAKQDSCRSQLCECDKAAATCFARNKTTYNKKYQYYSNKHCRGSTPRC

[7] = test system: HSV-1 (KOS); test: HSV-1 infection ELISA assay; assay type: cell-based, herpes simplex virus
[8] = test system: human cytomegalovirus (HCMV); assay type: cell-based
[9] = test system: HIV-1; settings: for inhibition of binding: 5 μM oligonucleotide
[10] = biological target: CD4/gp120 interaction (Human immunodeficiency virus type 1 group M subtype B, UniProt P03375); settings: concentrations 10,000-fold above its IC50; Callahan et al.; cited from earlier work
[11] = biological target: V3 loop region of gp120 (Human immunodeficiency virus type 1 group M subtype B, UniProt P03375)
[12] = test system: HIV; assay type: cell-based; settings: data not shown
[13] = biological target: T2, CD4 (Homo sapiens, UniProt P01730); test: Immunofluorescent flow cytometry, anti-CD4 mAb on CEM-T4 cells; assay type: cell-based
[14] = biological target: T3, human CD44 (Homo sapiens, UniProt P16070); test: Immunofluorescent flow cytometry, anti-CD44 mAb; assay type: cell-based
T3 construct: endogenous in cells; host or cells: HeLa cells harboring an HIV-1 env gene
T3 sequence (P16070 21-361 isoform P16070-12 limits assumed): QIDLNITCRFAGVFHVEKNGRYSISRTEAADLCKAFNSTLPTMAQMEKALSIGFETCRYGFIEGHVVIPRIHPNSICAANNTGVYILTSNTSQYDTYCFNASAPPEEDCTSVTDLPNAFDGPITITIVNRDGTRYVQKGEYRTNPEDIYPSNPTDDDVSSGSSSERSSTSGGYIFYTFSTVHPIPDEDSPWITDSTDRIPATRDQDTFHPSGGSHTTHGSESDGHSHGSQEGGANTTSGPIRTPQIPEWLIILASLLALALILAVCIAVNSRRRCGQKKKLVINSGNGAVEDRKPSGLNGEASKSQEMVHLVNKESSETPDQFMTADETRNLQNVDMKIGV

[15] = test system: chronically infected (H9 IIIB) cell models; test: Chronically infected cell models; assay type: cell-based, human immunodeficiency virus; settings: data not shown
[16] = biological target: gp120 (Human immunodeficiency virus type 1 group M subtype B, UniProt P03375); settings: read-out: dissociation constant (Kd); immobilized gp120; FIG. 16
[17] = biological target: T2, CD4; assay type: binding
[18] = test system: HSV-1 (KOS); test: HSV-1 virus yield assay; assay type: cell-based, herpes simplex virus; parameters: dose or concentration left out as unconfirmed; settings: compared with Acyclovir
[19] = Table 1, 50% inhibition of HSV replication relative to control infected cells
[20] = Table 12, inosine-substituted oligonucleotides against HSV

## 5667 (DNA TTGGGGTTGGGGTT; unmodified DNA) [compound 5667]
[1]
  pIC50: < 4.66
[2]
  TC50: 5.6 µM

## 5666 (DNA TTGGGGTTGGGGTTGGGG; phosphodiester, further chemistry not given here) [compound 5666]
[3]
  TI (TC50/IC50): 100

## 5669 (DNA GGGGTTGGGGTTGGGG; unmodified DNA) [compound 5669]
[1]
  pIC50: 5.92
[3]
  TI (TC50/IC50): 9
[2]
  TC50: 9.6 µM

## TGG GG [ISIS 5544]
[4]
  % tetramer: 57* %
[5]; Table 16, acute HIV assay
  IC50: inactive
[6]; 1 μM
  inhibition of enzyme activity: 50%
[6]; 3 μM
  inhibition of enzyme activity: complete inhibition

## GsGsGsGsTsT
[4]
  % tetramer: 94* %
[5]; Table 16, acute HIV assay
  pIC50: 6.30

## 5677 (DNA dG*dG*dG*dG*dT*dT*dG*dG*dG*dG*dT*dT*dG*dG*dG*dG*dT*dT*dG*dG*dG*dG) [compound 5677]
[3]
  TI (TC50/IC50): 146

## TsToGsGoGsGoTsT
[4]
  % tetramer: 83%
[5]; Table 16, acute HIV assay
  pIC50: 5.28

## 5367 (TTGGGGTTGGGGTTGGGGTTGGGGG; phosphodiester, further chemistry not given here) [compound 5367]
[1]
  TI (TC50/IC50): 400
  pIC50: 7.05 and 6.89
[7]; [19]
  pEC50: < 5.40
[2]
  TC50: 52 µM
[8]
  pIC50: < 5.70

## TsTsGsGsGsGsTsT [TsTsGsGsGsGsTsT heat denatured]
[4]
  % tetramer: 0%
[5]; Table 16, acute HIV assay
  IC50: inactive
[9]
  inhibition of binding: showed inhibition of binding

## dextran sulfate
[10]
  effect on gp120/CD4 interaction: does not prevent the gp120/CD4 interaction

## 5309 (GTTGGAGACCGNGTTGGGG; inosine substitution, further chemistry not given here) [compound 5309]
[7]; [20]
  pEC50: < 5.52

## 5649 (TTGGGGTTGGGGTTGGGGTTGGGG; phosphodiester, further chemistry not given here) [compound 5649]
[3]
  TI (TC50/IC50): 300
[7]; [19]
  pEC50: < 5.52

## TGTGTGTG [ISIS 6071, reference compound]
[4]
  % tetramer: 0%
[5]; Table 16, acute HIV assay
  IC50: inactive
[9]
  inhibition of binding: showed inhibition of binding

## Nc1nc2c(ncn2COCCO)c(=O)[nH]1 [ACV, 9-(2-hydroxyethoxymethyl) guanine, reference compound]
[7]; FIG. 8 and FIG. 9
  activity against HSV-1: more active than a control oligonucleotide, ISIS 3383

## 5674 (DNA dT*dT*dG*dG*dG*dG*dT*dT*dG*dG*dG*dG) [compound 5674]
[2]
  TC50: >200 µM

## ToTsGoGsGoGsToT
[4]
  % tetramer: 9%
[5]; Table 16, acute HIV assay
  IC50: inactive

## TT GGGG [ISIS 5739]
[4]
  % tetramer: 40* %
[5]; Table 16, acute HIV assay
  pIC50: 4.89

## ToToGsGsGsGoToT
[4]
  % tetramer: 72%
[5]; Table 16, acute HIV assay
  IC50: inactive

## TT GGGG TT [ISIS 5320]
[11]
  effect on binding of antisera to gp120: interferes with binding of antisera directed against the V3 loop region of gp120
[12]
  production of intracellular PCR-amplifiable DNA: inhibited production of intracellular PCR-amplifiable DNA
[13]
  effect on binding of antibodies to CD4: Neither oligonucleotide significantly decreased binding
[14]
  effect on binding of antibodies to human CD44: Neither oligonucleotide significantly decreased binding
[5]; Table 15, μM of oligonucleotide strand to inhibit 50% of virus-induced cell killing, error ±0.1 μM
  IC50: 0.3 µM
[5]; Table 16, acute HIV assay, listed as TsTsGsGsGsGsTsT
  pIC50: 6.52
[5]; data not shown
  antiviral activity after heat denaturation of the tetrameric complex: loss of activity
[15]
  effect on chronically infected cells: had no effect
[9]; read-out: concentration reducing virus production to 50% of control, tetramer form, infection after 48 hours, data not shown
  pIC50: ~6.40

## α-ToToGoGoGoGoToT
[4]
  % tetramer: 97%
[5]; Table 16, acute HIV assay
  IC50: inactive

## 5651 (TTGGGGTTGGGGTTGGGGTTGGGG; phosphorothioate, further chemistry not given here) [compound 5651]
[3]
  TI (TC50/IC50): 175
[2]
  TC50: 19, 19 μM

## 5652 (TTGGGGTTGGGGTTGGGGTT; phosphorothioate, further chemistry not given here) [compound 5652]
[1]
  TI (TC50/IC50): 227

## TsTsGoGoGoGsTsT
[4]
  % tetramer: 80%
[5]; Table 16, acute HIV assay
  pIC50: 5.30

## T2A4T2-biotin
[16]
  pKd: ~3.59

## 5653 (TTGGGGTTGGGGTTGGGG; phosphorothioate, further chemistry not given here) [compound 5653]
[1]
  pIC50: 6.72
[2]
  TC50: 27 µM

## 5590 (GGGGTTGGGG; phosphodiester, further chemistry not given here) [compound 5590]
[1]
  pIC50: < 4.60
[7]; [19]
  pEC50: < 5.52
[2]
  TC50: 20 µM

## 5366 (TTGGGGTTGGGGTTGGGGTTGGGGG; phosphorothioate, further chemistry not given here) [compound 5366]
[1]
  TI (TC50/IC50): 220
[2]
  TC50: 22 µM

## GsGsGsGsT
[4]
  % tetramer: 61* %
[5]; Table 16, acute HIV assay
  pIC50: 5.85

## 5670 (DNA GGGGTTGGGGTTGGGGTTGGGG; unmodified DNA) [compound 5670]
[7]; [19]
  pEC50: < 5.52
[2]
  TC50: 15 µM

## 4721 (CACGGGGTCG; phosphorothioate, further chemistry not given here) [compound 4721]
[3]
  TI (TC50/IC50): 546
[2]
  TC50: 142 µM

## 5650 (TTGGGGTTGGGGTTGGGGTT; phosphodiester, further chemistry not given here) [compound 5650]
[1]
  pIC50: 6.19
[3]
  TI (TC50/IC50): 12
[7]; [19]
  pEC50: < 5.52
[2]
  TC50: 7.6 µM

## 5675 (DNA dT*dT*dG*dG*dG*dG*dT*dT*dG*dG*dG*dG*dT*dT) [compound 5675]
[3]
  TI (TC50/IC50): 36
[2]
  TC50: 14 µM

## TsTsGsGsGsGsTsTsB
[4]
  % tetramer: 85%
[5]; Table 16, acute HIV assay
  pIC50: 6.40
[17]
  pKd: ~4.60

## GGGGGGTG [ISIS 5684]
[7]; b190
  ED50: approximately 0.6 μM

## 5544 (GGGTGGGTATAG; phosphorothioate, further chemistry not given here) [compound 5544]
[7]; [19]
  pEC50: < 5.52
[6]; Table 5, 1 μM, two separate experiments
  % Inhibition (1 μM): 50%

## 5296 (GTTGGAGACCGGGGTTGGNG; DNA, [I] at 19, backbone not given here) [compound 5296]
[7]; [20]
  pEC50: 6.10

## α-TsTsGsGsGsGsTsT
[4]
  % tetramer: 98%
[5]; Table 16, acute HIV assay
  pIC50: 6.30

## TT GGGG TT GGGG TT GGGG TT GGGG (TTGGGGTTGGGGTTGGGGTTGGGG; chemistry not fully specified) [ISIS 5651]
[18]
  antiviral activity, virus yield: greater antiviral activity than did Acyclovir

## 5676 (DNA dG*dG*dG*dG*dT*dT*dG*dG*dG*dG*dT*dT*dG*dG*dG*dG) [compound 5676]
[3]
  TI (TC50/IC50): 114

## 5668 (DNA TTGGGGTTGGGG; unmodified DNA) [compound 5668]
[1]
  pIC50: < 4.68
[2]
  TC50: 5.2 µM

## 5297 (CACGAAAGGCATGACCGNGGC; DNA, [I] at 18, backbone not given here) [compound 5297]
[7]; [20]
  pEC50: < 5.52

## GG GG [ISIS 4803]
[4]
  % tetramer: 29* %
